Experimental data reported in PMC3584109, “Protective Effect of Borage Seed Oil and Gamma Linolenic Acid on DNA: In Vivo and In Vitro Studies” (PLoS ONE, 2013).
Read-outs that look alike come from different tables or passages of the source. Marks after values point to notes of the source that are not given here. Values belong to the molecule of their own block, whether it stands above or below them.

Legend:
D. melanogaster [1] = details: for % of inhibition: calculated according to Abraham (1994)
Procedure: (§1) Analysis of the genotoxic and antigenotoxic activities of borage seed oil and GLA, was evaluated by the Drosophila SMART test. Two different Drosophila melanogaster strains carrying visible wing genetic markers were used: the flare (flr) strain flr^3/ln (3LR) TM3, Bd^s and the multiple wing-hair (mwh) strain mwh/mwh. The marker multiple wing hairs (mwh, 3_0.3) is a recessive mutation that is viable in homozygous flies, producing multiple hairs per cell instead of the wild type single-hair trichome. The marker flare (flr^3, 3_38.3) is a recessive mutation which produces individual wing hairs that are malformed. The flr^3 allele is retained via a balancer chromosome carrying multiple inversions and a dominant marker which is homozygous lethal (TM3, Bd^S: Third Multiple 3, Beaded-Serrate). Additional information on genetic markers can be found in [31].
(§2) Crosses were performed with optimally fertile virgin females of the flr3/TM3, Bd^s strain and mwh/mwh males. After 8 h egg-laying, 72±3 h old larvae were washed in distilled water, transferred to fresh vials with 0.85 g Drosophila Instant Medium (formula 4–24, Carolina Biological Supply, Burlington NC, USA) which were wetted with 4 ml after of put solutions of increasing concentrations of the borage seed oil and GLA. Test groups consisting of 100 larvae each were: (i) negative control (distilled water); (ii) mutagenic positive control (hydrogen peroxide 0.12 M); (iii) 5 vials with increasing concentrations of borage seed oil (12.5, 18.7, 31.2, 62.5 and 125 µl/ml); and (iv) 5 vials with increasing concentrations of GLA (8.9, 13, 22, 45 and 90 mM). Taking into account the average daily food intake of D. melanogaster (1 mg/day) and the average body weight of D. melanogaster individuals (1 mg), the concentration range for both borage seed oil and GLA were calculate to fit them into the recommended fat daily intake for humans (60 g of total fat/day for 60 kg human body weight). Emerging adults of all groups were counted and stored in 70% ethanol to be analysed. Procedures are: 1) Toxicity assays evaluated (number of individuals born in treatment/number of individuals born in the negative control)x100. 2) Genotoxicity assays evaluated mutation rate diagnosis of different groups and 3) Antigenotoxicity testing, combined treatments were performed as previously described by Anter et al., 2011 [32], by using hydrogen peroxide 0.12 M as the genotoxicant and the concentrations of borage seed oil and GLA mentioned above in groups (iii) and (iv), evaluating mutation rate diagnosis of different treatments.
(§3) Marker-heterozygous genotypes (mwh/flr^3) were mounted on slides with Faurés solution. Both dorsal and ventral surfaces of the wings containing 22,000 cells were screened under a photonic microscope at 400× magnification for the occurrence of individual spots (mwh or flr phenotype) or twin spots (mwh clone adjacent to flr clone). […] Large individual spots with three or more cells showing mwh or flr phenotypes corresponded to mutational events occurring earlier during larvae development. Twin spots with two juxtaposed clones corresponded uniquely to recombination events between the flr^3 gene and the centromere.
(§4) For the evaluation of genotoxic effects, the frequencies of spots per fly of each treated series were compared to the concurrent negative control for each class of mutational clone. A multiple-decision procedure was used to categorize results as positive, weakly positive, inconclusive, or negative. Statistical analyses were carried out for single, large, twin and total number of spots recovered. Inconclusive and positive data were evaluated by the non-parametric U test of Mann, Whitney and Wilcoxon according to Frei and Würgler 1995 [36]. The inhibition percentage for each compound and treatment was calculated following Abraham, 1994 [37] (hydrogen peroxide alone - substance assayed + hydrogen peroxide / hydrogen peroxide alone) × 100.

D. melanogaster [2] = assay: Toxicity assay: survival of adults from treated 72 h old larvae; type: in vivo, Drosophila melanogaster; details: for average toxicities (survival): average over tested concentrations
Procedure: Crosses were performed with optimally fertile virgin females of the flr3/TM3, Bd^s strain and mwh/mwh males. After 8 h egg-laying, 72±3 h old larvae were washed in distilled water, transferred to fresh vials with 0.85 g Drosophila Instant Medium (formula 4–24, Carolina Biological Supply, Burlington NC, USA) which were wetted with 4 ml after of put solutions of increasing concentrations of the borage seed oil and GLA. […] Taking into account the average daily food intake of D. melanogaster (1 mg/day) and the average body weight of D. melanogaster individuals (1 mg), the concentration range for both borage seed oil and GLA were calculate to fit them into the recommended fat daily intake for humans (60 g of total fat/day for 60 kg human body weight). Emerging adults of all groups were counted and stored in 70% ethanol to be analysed. Procedures are: 1) Toxicity assays evaluated (number of individuals born in treatment/number of individuals born in the negative control)x100.

D. melanogaster [3] = details: in vivo
Procedure: as §1, §2, §3, §4

HL60 cells = assay: Cytotoxicity assay, Trypan Blue dye exclusion; type: cell-based; details: Homo sapiens, HL-60, 72 h, read-out: IC50 (concentration causing 50% inhibition of cell growth)
Procedure: The human promyelocytic leukaemia cell line HL60 was obtained from Dr. José M. Villalba Montoro (Department of Cell Biology, Univ. Cordoba, Spain), [34]. HL60 cells were incubated in RPMI-1640 medium (Cat N° A1049101, Invitrogen) supplemented with: L-glutamine 200 mM, (Cat N° G7513, Sigma-Aldrich, St. Louis, MO) antibiotics 100× (Cat N° A5955, Sigma-Aldrich, St. Louis, MO) and 10% heat-inactivated foetal bovine serum (Cat N° SO1805, Linus). Cells were maintained at 37°C in an atmosphere of 5% CO2. Cultures were plated at a density of 12.5×10^4cells/ml in 40 ml culture bottles (25 cm^2) and passed every 2 days.
For the assessment of cell viability, HL60 cells were placed in 12 well culture plates (1×10^5 cells/ml) and treated for 72 h with increasing concentrations of borage seed oil and GLA. Cell viability was determined by the Trypan Blue dye exclusion test (T8154, Sigma-Aldrich, St. Louis, MO). Cells were counted by adding an aliquot of 10 µl of the culture to 10 µl of the Trypan Blue dye. The mix was counted under a light inverted microscope using a Neubauer chamber (AE30/31, Motic). Aliquots were taken after 24, 36, 48, 60 and 72 h incubation. […] Curves are expressed as the percentage of survival with respect to controls at 72 h of growth. […]

D. melanogaster [4] = assay: Longevity assay (life span and health span); type: in vivo, Drosophila melanogaster; details: all assayed concentrations of GLA
Procedure: The F1 progeny from […]^3 parental strains produced by 24 h egg-laying in yeast was used. Longevity experiments were carried out at 25°C, following the procedure described by Chavous et al., 2001 [33]. Briefly, synchronised transheterozygous 72±12 h old larvae were washed in distilled water and separated into groups of 100 individuals in vials with a mixture of 0.85 g Drosophila Instant Medium and 4 ml of the different concentrations of the two substances selected. […] Three replicates were used during the complete life span for each control and concentration established. The number of survivors was counted and the medium renewed twice a week. In addition, the Kaplan-Meier estimates of the survival function for each concentration and respective control are plotted as survival curves. Statistical analyses and significance of the curves were assessed using the SPSS 15.0 statistics software (SPSS Inc. Headquarters, Chicago, IL, USA) using the Log-Rank (Mantel-Cox) method.

[5] = system: human hepatoma HepG2 cells (E9 cells); design: method as in PMID 9660301; details: cited from earlier work
[6] = system: leukocytes (HL-60, Jurkat and Raji cells); design: method as in PMID 12489694; details: cited from earlier work

Compound: OO [hydrogen peroxide]
Total spots diagnosis (D. melanogaster [1]; in vivo): + | Survival percentage for 0.12 M hydrogen peroxide alone treatments (D. melanogaster [2]; 0.12 M hydrogen peroxide alone): 84.44^(4) % | Mutation rate (Spots per wing) Large single spots (>2 cells) m = 5 (D. melanogaster [3]): 0.03 (12) spots per wing | Mutation rate (Spots per wing) Small single spots (1–2 cells) m = 2 (D. melanogaster [3]): 0.46 (126) spots per wing | Mutation rate (Spots per wing) Total spots m = 2 (D. melanogaster [3]): 0.51 spots per wing | Mutation rate (Spots per wing) Twin spots m = 5 (D. melanogaster [3]): 0.01 (3) spots per wing | N° of emerging adults (D. melanogaster [3]): 328 | Total spots diagnosis (D. melanogaster [3]): +

weighted average of induced spots/wing (D. melanogaster [3]; Drosophila melanogaster): 0.23 spots/wing
Compound: CCCCC/C=C\C/C=C\C/C=C\CCCCC(=O)O [GLA, all cis-6,9,12-octadecatrienoic acid]
Mutation rate (Spots per wing) Large single spots (>2 cells) m = 5 (D. melanogaster [1]; GLA 8.9 mM + H2O2 0.12 M): 0.02 (1) spots per wing | Mutation rate (Spots per wing) Small single spots (1–2 cells) m = 2 (D. melanogaster [1]; GLA 8.9 mM + H2O2 0.12 M): 0.3 (15) spots per wing | Mutation rate (Spots per wing) Total spots m = 2 (D. melanogaster [1]; GLA 8.9 mM + H2O2 0.12 M): 0.32 spots per wing | Mutation rate (Spots per wing) Twin spots m = 5 (D. melanogaster [1]; GLA 8.9 mM + H2O2 0.12 M): 0 spots per wing | % of inhibition (D. melanogaster [1]; GLA 8.9 mM + H2O2 0.12 M): 37% | Mutation rate (Spots per wing) Large single spots (>2 cells) m = 5 (D. melanogaster [1]; GLA 13 mM + H2O2 0.12 M): 0 spots per wing | Mutation rate (Spots per wing) Small single spots (1–2 cells) m = 2 (D. melanogaster [1]; GLA 13 mM + H2O2 0.12 M): 0.25 (3) spots per wing | Mutation rate (Spots per wing) Total spots m = 2 (D. melanogaster [1]; GLA 13 mM + H2O2 0.12 M): 0.25 spots per wing | Mutation rate (Spots per wing) Twin spots m = 5 (D. melanogaster [1]; GLA 13 mM + H2O2 0.12 M): 0 spots per wing | % of inhibition (D. melanogaster [1]; GLA 13 mM + H2O2 0.12 M): 51% | Mutation rate (Spots per wing) Large single spots (>2 cells) m = 5 (D. melanogaster [1]; GLA 22 mM + H2O2 0.12 M): 0 spots per wing | Mutation rate (Spots per wing) Small single spots (1–2 cells) m = 2 (D. melanogaster [1]; GLA 22 mM + H2O2 0.12 M): 0.39 (11) spots per wing | Mutation rate (Spots per wing) Total spots m = 2 (D. melanogaster [1]; GLA 22 mM + H2O2 0.12 M): 0.42 spots per wing | Mutation rate (Spots per wing) Twin spots m = 5 (D. melanogaster [1]; GLA 22 mM + H2O2 0.12 M): 0.03 (1) spots per wing | % of inhibition (D. melanogaster [1]; GLA 22 mM + H2O2 0.12 M): 17% | Mutation rate (Spots per wing) Large single spots (>2 cells) m = 5 (D. melanogaster [1]; GLA 45 mM + H2O2 0.12 M): 0.03 (1) spots per wing | Mutation rate (Spots per wing) Small single spots (1–2 cells) m = 2 (D. melanogaster [1]; GLA 45 mM + H2O2 0.12 M): 0.19 (5) spots per wing | Mutation rate (Spots per wing) Total spots m = 2 (D. melanogaster [1]; GLA 45 mM + H2O2 0.12 M): 0.26 spots per wing | Mutation rate (Spots per wing) Twin spots m = 5 (D. melanogaster [1]; GLA 45 mM + H2O2 0.12 M): 0.03 (1) spots per wing | % of inhibition (D. melanogaster [1]; GLA 45 mM + H2O2 0.12 M): 49% | Mutation rate (Spots per wing) Large single spots (>2 cells) m = 5 (D. melanogaster [1]; GLA 90 mM + H2O2 0.12 M): 0.06 (1) spots per wing | Mutation rate (Spots per wing) Small single spots (1–2 cells) m = 2 (D. melanogaster [1]; GLA 90 mM + H2O2 0.12 M): 0.18 (3) spots per wing | Mutation rate (Spots per wing) Total spots m = 2 (D. melanogaster [1]; GLA 90 mM + H2O2 0.12 M): 0.25 spots per wing | Mutation rate (Spots per wing) Twin spots m = 5 (D. melanogaster [1]; GLA 90 mM + H2O2 0.12 M): 0 spots per wing | % of inhibition (D. melanogaster [1]; GLA 90 mM + H2O2 0.12 M): 51% | antigenotoxicity (D. melanogaster [1]; compared to hydrogen peroxide): antimutagenic | inhibitory potential against hydrogen peroxide, weighted average (D. melanogaster [1]; over all concentrations): 38.1% | IC50 (HL60 cells): 87 µM | effect on life span (D. melanogaster [4]): decreased the mean survival time significantly | Survival % Simple treatment (D. melanogaster [2]; GLA 8.9 mM (lowest concentration)): 99% | Survival % Simple treatment (D. melanogaster [2]; GLA 8.9 mM (lowest concentration), listed as Gamma-linolenic acid): 99.25% | Survival % Combined Treatment (D. melanogaster [2]; GLA 8.9 mM + 0.12 M hydrogen peroxide): 48.88*** % | Survival % Simple treatment (D. melanogaster [2]; GLA 13 mM): 66.66*** % | Survival % Combined Treatment (D. melanogaster [2]; GLA 13 mM + 0.12 M hydrogen peroxide): 22.22*** % | Survival % Simple treatment (D. melanogaster [2]; GLA 22 mM): 39.25*** % | Survival % Combined Treatment (D. melanogaster [2]; GLA 22 mM + 0.12 M hydrogen peroxide): 39.25*** % | Survival % Simple treatment (D. melanogaster [2]; GLA 45 mM): 50.37*** % | Survival % Combined Treatment (D. melanogaster [2]; GLA 45 mM + 0.12 M hydrogen peroxide): 37.77*** % | Survival % Simple treatment (D. melanogaster [2]; GLA 90 mM): 20.74*** % | Survival % Combined Treatment (D. melanogaster [2]; GLA 90 mM + 0.12 M hydrogen peroxide): 32.59*** % | decrease in survival (D. melanogaster [2]; GLA, next higher concentration after the lowest (13 mM)): 66% | toxicity to D. melanogaster (D. melanogaster [2]; lowest concentration of GLA): non-toxicity | average toxicities (survival) (D. melanogaster [2]; plus hydrogen peroxide as a toxicant): 31% | average toxicities (survival) (D. melanogaster [2]; simple treatment): 55% | genotoxicity (D. melanogaster [3]): non-genotoxic

Compound: CCCCCCCC/C=C\CCCCCCCC(=O)O [oleic acid, cis-9 octadecenoic]
toxicity to E9 cells ([5]; 0.05 mM): no significant toxicity

Compound: CCCCC/C=C\C/C=C\C/C=C\C/C=C\CCCC(=O)O [arachidonic acid]
concentrations with necrotic effect ([6]; high concentrations): 400 to 1600 µM | concentrations with apoptotic effect ([6]; low concentrations): 10 to 400 µM | toxicity to E9 cells ([5]; pretreatment with 0.03 mM): significant toxicity
